Data on one compound can be found in BindingDB's records for patent US12371430 (Merck Patent, 2025).

What is called IC50 is the point on the concentration scale where inhibition reaches its midpoint.

The test addresses ATR-interacting protein/Serine/threonine-protein kinase ATR (Homo sapiens, UniProt Q13535). The experiment in a line: ATR/ATRIP Kinase Assay. The method, then: The ATR/ATRIP enzymatic assay is performed as a TR-FRET-(HTRF™, Cisbio Bioassays) based 384-well assay. In a first step, purified human recombinant ATR/ATRIP (human ATR, full length, GenBank ID: NM_001184.3, and human ATRIP, full length, GenBank ID AF451323.1, co-expressed in a mammalian cell line) is incubated in assay buffer for 15 minutes at 22° C. with test compound at different concentrations or without test compound (as a negative control). The assay buffer contains 25 mM HEPES pH 8.0, 10 mM Mg(CH3COO)2, 1 mM MnCl2, 0.1% BSA, 0.01% Brij 35, and 5 mM dithiothreitol (DTT). An Echo 555 (Labcyte) is used for dispensing of compound solutions. […] The generation of phosphorylated p53 as a result of the ATR mediated reaction in the presence of ATP is detected by using specific antibodies [labeled with the fluorophores europium (Eu) as donor and d2 as acceptor (Cisbio Bioassays)] enabling FRET. […] Following signal development for 2 h the plates are analyzed in an EnVision (PerkinElmer) microplate reader using the TRF mode with laser excitation. Upon excitation of the donor europium at 340 nm the emitted fluorescence light of the acceptor d2 at 665 nm as well as from the donor Eu at 615 nm are measured. The amount of phosphorylated p53 is directly proportional to the ratio of the amounts of emitted light i.e. the ratio of the relative fluorescence units (rfu) at 665 nm and 615 nm. […]

Chain of ATR-interacting protein/Serine/threonine-protein kinase ATR (Q8WXE1 whole entry): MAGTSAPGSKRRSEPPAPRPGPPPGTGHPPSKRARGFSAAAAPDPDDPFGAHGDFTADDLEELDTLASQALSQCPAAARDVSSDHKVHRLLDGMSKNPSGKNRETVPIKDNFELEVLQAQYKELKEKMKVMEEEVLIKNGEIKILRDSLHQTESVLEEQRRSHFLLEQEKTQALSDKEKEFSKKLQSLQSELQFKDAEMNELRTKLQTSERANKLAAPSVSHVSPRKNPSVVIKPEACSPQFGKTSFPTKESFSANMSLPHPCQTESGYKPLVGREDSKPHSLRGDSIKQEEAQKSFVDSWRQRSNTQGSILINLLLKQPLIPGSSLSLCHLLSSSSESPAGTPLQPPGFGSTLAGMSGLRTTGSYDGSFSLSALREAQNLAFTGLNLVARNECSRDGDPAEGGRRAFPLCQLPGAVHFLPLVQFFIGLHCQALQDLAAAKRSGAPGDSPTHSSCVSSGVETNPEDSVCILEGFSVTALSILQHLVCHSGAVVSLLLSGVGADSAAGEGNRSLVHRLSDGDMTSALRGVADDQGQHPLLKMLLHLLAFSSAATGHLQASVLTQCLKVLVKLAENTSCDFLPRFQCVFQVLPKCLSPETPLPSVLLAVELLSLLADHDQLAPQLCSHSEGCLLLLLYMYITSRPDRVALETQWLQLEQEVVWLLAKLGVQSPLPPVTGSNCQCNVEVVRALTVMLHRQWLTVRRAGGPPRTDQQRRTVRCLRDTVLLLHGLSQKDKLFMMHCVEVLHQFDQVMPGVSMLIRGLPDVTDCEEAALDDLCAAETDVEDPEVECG
Chain of ATR-interacting protein/Serine/threonine-protein kinase ATR (Q13535 whole entry): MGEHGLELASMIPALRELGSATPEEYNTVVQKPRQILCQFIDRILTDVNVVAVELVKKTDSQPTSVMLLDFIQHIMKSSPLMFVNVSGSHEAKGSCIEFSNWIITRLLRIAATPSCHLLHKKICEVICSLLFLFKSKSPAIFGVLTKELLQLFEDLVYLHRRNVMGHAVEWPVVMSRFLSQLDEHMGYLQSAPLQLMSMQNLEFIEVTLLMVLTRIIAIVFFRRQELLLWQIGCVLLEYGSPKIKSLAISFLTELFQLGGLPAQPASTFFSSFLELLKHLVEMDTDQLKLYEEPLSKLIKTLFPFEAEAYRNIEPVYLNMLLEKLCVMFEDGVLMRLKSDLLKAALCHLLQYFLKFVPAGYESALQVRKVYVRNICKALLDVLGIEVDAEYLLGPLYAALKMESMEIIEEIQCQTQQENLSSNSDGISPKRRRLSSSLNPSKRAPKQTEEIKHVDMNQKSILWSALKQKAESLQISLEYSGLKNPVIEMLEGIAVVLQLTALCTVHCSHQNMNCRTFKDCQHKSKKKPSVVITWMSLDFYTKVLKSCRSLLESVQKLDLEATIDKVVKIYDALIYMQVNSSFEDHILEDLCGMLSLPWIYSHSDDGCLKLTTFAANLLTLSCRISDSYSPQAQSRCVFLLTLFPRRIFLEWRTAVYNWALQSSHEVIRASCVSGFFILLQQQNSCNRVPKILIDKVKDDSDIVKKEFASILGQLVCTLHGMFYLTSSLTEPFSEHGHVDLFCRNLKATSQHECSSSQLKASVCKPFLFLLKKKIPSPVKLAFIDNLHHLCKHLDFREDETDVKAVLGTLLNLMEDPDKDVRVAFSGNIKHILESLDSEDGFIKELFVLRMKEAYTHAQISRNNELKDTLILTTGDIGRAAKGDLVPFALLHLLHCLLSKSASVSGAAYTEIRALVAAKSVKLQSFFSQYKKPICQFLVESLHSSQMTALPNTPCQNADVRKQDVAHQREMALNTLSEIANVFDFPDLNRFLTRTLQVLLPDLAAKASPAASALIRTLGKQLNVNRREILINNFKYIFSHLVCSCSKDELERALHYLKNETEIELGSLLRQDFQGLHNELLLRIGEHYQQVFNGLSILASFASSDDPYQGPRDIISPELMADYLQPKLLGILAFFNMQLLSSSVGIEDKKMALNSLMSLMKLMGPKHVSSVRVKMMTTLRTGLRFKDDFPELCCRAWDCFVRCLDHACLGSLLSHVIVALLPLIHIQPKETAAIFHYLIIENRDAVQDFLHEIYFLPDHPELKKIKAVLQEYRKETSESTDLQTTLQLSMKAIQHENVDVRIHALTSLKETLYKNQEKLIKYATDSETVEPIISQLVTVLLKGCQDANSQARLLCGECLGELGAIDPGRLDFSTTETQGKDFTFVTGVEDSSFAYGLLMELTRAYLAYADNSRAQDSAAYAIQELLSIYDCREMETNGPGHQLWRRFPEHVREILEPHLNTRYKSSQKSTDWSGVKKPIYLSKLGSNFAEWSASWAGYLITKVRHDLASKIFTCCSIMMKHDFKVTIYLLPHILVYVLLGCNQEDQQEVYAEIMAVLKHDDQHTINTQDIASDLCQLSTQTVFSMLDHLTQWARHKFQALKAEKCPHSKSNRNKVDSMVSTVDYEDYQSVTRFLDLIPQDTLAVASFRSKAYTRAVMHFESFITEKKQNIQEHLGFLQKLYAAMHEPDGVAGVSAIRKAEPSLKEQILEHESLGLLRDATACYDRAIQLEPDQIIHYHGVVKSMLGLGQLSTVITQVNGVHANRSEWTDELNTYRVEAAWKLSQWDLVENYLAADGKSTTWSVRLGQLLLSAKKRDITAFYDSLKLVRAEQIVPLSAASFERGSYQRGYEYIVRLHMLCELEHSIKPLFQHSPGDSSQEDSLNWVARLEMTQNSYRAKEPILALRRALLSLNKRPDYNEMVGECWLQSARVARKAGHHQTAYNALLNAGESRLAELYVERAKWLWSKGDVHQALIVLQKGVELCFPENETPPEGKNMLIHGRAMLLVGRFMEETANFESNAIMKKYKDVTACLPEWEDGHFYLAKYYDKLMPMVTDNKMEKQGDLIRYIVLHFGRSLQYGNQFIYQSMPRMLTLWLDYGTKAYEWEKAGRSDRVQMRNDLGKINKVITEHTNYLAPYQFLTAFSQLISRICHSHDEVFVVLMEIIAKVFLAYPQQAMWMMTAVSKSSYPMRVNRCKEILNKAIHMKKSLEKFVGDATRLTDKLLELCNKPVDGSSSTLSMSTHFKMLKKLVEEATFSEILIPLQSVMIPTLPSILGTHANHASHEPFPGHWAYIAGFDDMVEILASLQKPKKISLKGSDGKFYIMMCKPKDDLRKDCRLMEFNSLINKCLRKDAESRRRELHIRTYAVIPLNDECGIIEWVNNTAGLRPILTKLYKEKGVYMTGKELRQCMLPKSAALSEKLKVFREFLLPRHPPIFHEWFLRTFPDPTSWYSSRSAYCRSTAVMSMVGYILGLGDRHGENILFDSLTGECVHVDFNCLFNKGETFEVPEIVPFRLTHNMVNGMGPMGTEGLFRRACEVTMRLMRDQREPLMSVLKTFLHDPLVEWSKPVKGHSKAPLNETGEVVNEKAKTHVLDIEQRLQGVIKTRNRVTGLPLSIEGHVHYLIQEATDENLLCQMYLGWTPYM

Regarding `C[C@@H]1COCCN1c1cc(C2CCS(=O)(=O)CC2)c2c(n1)c(-c1ccn[nH]1)nn2C` [US12371430, Compound 82], the IC50 stood at 0.8 nM.
